Experimental data published in patent publication US11739098B2 (BRISTOL-MYERS SQUIBB COMPANY, priority 2017, dated 2023).

Columns and labels:
Assay type in all cases: cell-based
human TLR7 = target: T1, human TLR7 (Homo sapiens, UniProt Q9NYK1); assay: TLR7 inhibition reporter assay (HEK-Blue cells, SEAP reporter, gardiquimod stimulation); conditions: HEK-Blue cells overexpressing human TLR7, SEAP reporter, gardiquimod 7.5 μM
T1 construct: host or cells: HEK-Blue cells (HEK293-derived reporter line)
T1 sequence (Q9NYK1 27-1049): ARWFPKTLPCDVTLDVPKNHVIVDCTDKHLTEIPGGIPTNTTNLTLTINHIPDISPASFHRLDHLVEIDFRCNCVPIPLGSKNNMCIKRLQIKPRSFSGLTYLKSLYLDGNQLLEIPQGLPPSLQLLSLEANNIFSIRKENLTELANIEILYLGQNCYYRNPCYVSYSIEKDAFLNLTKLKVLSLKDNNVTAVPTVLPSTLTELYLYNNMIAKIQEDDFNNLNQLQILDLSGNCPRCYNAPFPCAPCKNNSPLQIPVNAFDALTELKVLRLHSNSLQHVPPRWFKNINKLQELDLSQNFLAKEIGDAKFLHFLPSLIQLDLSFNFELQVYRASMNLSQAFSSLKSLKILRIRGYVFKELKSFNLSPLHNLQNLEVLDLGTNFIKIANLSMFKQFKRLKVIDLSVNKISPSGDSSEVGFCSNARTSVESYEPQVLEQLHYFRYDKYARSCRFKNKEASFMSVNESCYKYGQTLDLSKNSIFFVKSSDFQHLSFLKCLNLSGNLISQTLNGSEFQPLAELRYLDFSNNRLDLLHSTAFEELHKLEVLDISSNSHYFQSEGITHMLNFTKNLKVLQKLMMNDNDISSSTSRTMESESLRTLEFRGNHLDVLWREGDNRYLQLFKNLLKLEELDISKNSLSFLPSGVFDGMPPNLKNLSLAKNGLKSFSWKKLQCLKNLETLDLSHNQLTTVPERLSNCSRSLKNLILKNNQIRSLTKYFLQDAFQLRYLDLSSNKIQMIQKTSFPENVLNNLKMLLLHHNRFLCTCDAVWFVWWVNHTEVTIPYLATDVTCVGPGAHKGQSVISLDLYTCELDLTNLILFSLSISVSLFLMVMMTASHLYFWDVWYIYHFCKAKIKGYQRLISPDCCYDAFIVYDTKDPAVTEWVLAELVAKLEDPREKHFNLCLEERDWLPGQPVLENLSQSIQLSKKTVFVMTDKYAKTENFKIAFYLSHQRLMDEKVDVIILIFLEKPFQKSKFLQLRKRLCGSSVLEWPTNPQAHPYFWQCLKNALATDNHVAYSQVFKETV
Outline: (§1)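 Percent inhibition of agonist-induced SEAP secretion in HEK-Blue cells after 22 h at 37 °C. Stimuli: 7.5 μM gardiquimod, 15.9 μM R848, 5 nM ODN2006 for TLR7, TLR8 and TLR9, added after 30 min compound exposure over a 0.05 nM–50 μM range.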

human TLR9 = target: T2, human TLR9 (Homo sapiens, UniProt Q9NR96); assay: TLR9 inhibition reporter assay (HEK-Blue cells, SEAP reporter, ODN2006 stimulation); conditions: HEK-Blue cells overexpressing human TLR9, SEAP reporter, ODN2006 5 nM
T2 construct: host or cells: HEK-Blue cells (HEK293-derived reporter line)
T2 sequence (Q9NR96 26-1032): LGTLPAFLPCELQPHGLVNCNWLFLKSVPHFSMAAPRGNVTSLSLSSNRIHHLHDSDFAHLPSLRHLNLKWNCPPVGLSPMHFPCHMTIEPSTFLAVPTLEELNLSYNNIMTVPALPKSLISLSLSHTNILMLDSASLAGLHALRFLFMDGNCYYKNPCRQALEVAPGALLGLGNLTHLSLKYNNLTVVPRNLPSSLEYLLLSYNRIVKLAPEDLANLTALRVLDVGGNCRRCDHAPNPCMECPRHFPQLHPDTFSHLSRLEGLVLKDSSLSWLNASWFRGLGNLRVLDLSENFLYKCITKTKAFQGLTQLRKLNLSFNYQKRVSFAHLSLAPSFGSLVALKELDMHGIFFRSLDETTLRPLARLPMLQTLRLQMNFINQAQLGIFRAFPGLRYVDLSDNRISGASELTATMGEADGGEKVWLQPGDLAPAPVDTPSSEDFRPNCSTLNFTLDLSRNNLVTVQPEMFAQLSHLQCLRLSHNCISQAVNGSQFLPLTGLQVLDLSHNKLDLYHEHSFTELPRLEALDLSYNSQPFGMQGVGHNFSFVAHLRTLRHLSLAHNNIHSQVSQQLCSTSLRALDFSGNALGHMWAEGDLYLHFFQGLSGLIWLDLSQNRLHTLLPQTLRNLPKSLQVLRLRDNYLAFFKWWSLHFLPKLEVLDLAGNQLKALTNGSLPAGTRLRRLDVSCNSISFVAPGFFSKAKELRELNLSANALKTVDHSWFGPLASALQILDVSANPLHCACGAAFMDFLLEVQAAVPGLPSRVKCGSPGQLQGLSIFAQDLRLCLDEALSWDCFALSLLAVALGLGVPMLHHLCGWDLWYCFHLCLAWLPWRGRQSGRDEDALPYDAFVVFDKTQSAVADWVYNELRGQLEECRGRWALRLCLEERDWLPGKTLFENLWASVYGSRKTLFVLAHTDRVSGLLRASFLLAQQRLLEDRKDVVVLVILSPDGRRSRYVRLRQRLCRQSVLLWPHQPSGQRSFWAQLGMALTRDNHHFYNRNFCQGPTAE
Outline: as §1

human TLR8 = target: T3, human TLR8 (Homo sapiens, UniProt Q9NR97); assay: TLR8 inhibition reporter assay (HEK-Blue cells, SEAP reporter, R848 stimulation); conditions: HEK-Blue cells overexpressing human TLR8, SEAP reporter, R848 15.9 μM
T3 construct: host or cells: HEK-Blue cells (HEK293-derived reporter line)
T3 sequence (Q9NR97 27-1041): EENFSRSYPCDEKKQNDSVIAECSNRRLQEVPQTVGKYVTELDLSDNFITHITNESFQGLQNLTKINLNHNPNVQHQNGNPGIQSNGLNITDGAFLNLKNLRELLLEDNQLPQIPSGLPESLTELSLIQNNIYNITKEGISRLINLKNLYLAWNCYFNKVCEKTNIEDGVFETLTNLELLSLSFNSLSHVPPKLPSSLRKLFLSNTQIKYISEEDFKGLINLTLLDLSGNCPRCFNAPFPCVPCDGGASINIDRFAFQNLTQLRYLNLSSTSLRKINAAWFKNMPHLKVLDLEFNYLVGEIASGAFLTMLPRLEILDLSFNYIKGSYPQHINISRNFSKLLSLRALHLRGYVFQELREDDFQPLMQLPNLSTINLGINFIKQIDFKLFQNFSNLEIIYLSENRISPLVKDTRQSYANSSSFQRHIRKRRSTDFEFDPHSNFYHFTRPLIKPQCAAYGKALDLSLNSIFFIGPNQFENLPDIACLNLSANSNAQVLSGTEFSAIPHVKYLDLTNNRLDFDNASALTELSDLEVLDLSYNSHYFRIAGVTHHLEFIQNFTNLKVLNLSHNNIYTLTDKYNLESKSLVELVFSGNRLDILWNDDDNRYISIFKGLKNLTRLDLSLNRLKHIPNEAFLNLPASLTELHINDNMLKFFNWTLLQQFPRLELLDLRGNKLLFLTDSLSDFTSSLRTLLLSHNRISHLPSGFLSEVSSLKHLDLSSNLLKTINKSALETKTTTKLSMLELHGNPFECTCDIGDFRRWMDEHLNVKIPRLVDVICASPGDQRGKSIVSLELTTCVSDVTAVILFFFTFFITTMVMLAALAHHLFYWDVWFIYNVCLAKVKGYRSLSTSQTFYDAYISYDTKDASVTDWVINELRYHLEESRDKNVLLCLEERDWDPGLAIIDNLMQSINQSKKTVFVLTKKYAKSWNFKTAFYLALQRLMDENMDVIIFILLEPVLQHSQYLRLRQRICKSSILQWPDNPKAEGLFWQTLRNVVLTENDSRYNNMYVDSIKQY
Outline: as §1

IC50 (human TLR7) [nM]	IC50 (human TLR9) [nM]	IC50 (human TLR8) [nM]	Compound
100 to 1000	1000 to 50000	< 100	CC(C)c1c(-c2ccnc3[nH]ncc23)[nH]c2ccc(C3CCN(Cc4ccc(N5CCCC5)cc4)CC3)cc12 [Example 905, 4-(3-isopropyl-5-(1-(4-(pyrrolidin-1-yl)benzyl)piperidin-4-yl)-1H-indol-2-yl)-1H-5 pyrazolo[3,4-b]pyridine]
1000 to 50000	1000 to 50000	100 to 1000	CCc1c(-c2ccc3onc(N)c3c2)[nH]c2ccc(C3CCNCC3)cc12 [Example 95, 5-(3-ethyl-5-(piperidin-4-yl)-1H-indol-2-yl)benzo[d]isoxazol-3-amine]
< 100	100 to 1000	< 100	Cc1n[nH]c2nccc(-c3[nH]c4ccc(C5CCNCC5)cc4c3C(C)C)c12 [Example 227, 4-(3-isopropyl-5-(piperidin-4-yl)-1H-indol-2-yl)-3-methyl-1H-pyrazolo[3,4-b]pyridine]
< 100	100 to 1000	< 100	Cc1cc(-c2[nH]c3ccc(C4CCN(CC(C)C)CC4)cc3c2C(C)C)cc2[nH]cnc12 [Example 955, 6-(5-(1-isobutylpiperidin-4-yl)-3-isopropyl-1H-indol-2-yl)-4-methyl-1H-benzo[d]imidazole]
< 100	1000 to 50000	< 100	Cc1cc(-c2[nH]c3ccc(C4CCN(Cc5ncn(C)n5)CC4)cc3c2C(C)C)cc2cnnn12 [Example 890, 5-(3-isopropyl-5-(1-((1-methyl-1H-1,2,4-triazol-3-yl)methyl)piperidin-4-yl)-1H-indol-2-yl)-7-methyl-[1,2,3]triazolo[1,5-a]pyridine]
100 to 1000	< 100	< 100	Cc1c(-c2ncnc3[nH]ncc23)[nH]c2ccc(C3CCN(C4CCN(C(C)C)CC4)CC3)cc12 [Example 816, 4-(5-(1′-isopropyl-[1,4′-bipiperidin]-4-yl)-3-methyl-1H-indol-2-yl)-1H-pyrazolo[3,4-d]pyrimidine]
< 100	1000 to 50000	100 to 1000	COc1cc(-c2[nH]c3ccc(C4CCN(CC(=O)N(C)C)CC4)cc3c2C(C)C)nn2ncnc12 [Example 283, 2-(4-(3-isopropyl-2-(8-methoxy-[1,2,4]triazolo[1,5-b]pyridazin-6-yl)-1H-indol-5-yl)piperidin-1-yl)-N,N-dimethylacetamide]
100 to 1000	1000 to 50000	100 to 1000	CCc1c(-c2ccnc3[nH]ncc23)[nH]c2ccc(C3CCN(Cc4c[nH]c(-c5ccccc5)n4)CC3)cc12 [Example 908, 4-(3-ethyl-5-(1-((2-phenyl-1H-imidazol-4-yl)methyl)piperidin-4-yl)-1H-indol-2-yl)-1H-pyrazolo[3,4-b]pyridine]
< 100	100 to 1000	< 100	Cc1nnn2ccc(-c3[nH]c4ccc(C5CCNCC5)cc4c3C(C)C)cc12 [Example 77, 5-(3-isopropyl-5-(piperidin-4-yl)-1H-indol-2-yl)-3-methyl-[1,2,3]triazolo[1,5-a]pyridine]
< 100	1000 to 50000	100 to 1000	Cc1cc2nnnn2cc1-c1[nH]c2ccc(C3CCN(C(=O)CN(C)C)CC3)cc2c1C(C)C [Example 486, 2-(dimethylamino)-1-(4-(3-isopropyl-2-(7-methyltetrazolo[1,5-a]pyridin-6-yl)-1H-indol-5-yl)piperidin-1-yl)ethan-1-one]
1000 to 50000	1000 to 50000	1000 to 50000	CC(C)c1c(-c2ccnc3[nH]c(=O)oc23)[nH]c2ccc(C3CCNCC3)cc12 [Example 58, 7-(3-isopropyl-5-(piperidin-4-yl)-1H-indol-2-yl)oxazolo[4,5-b]pyridin-2(3H)-one]
100 to 1000	100 to 1000	100 to 1000	Cc1cc(-c2[nH]c3ccc(C4CCNCC4)cc3c2C(C)C)cc2[nH]c(=O)oc12 [Example 91, 5-(3-isopropyl-5-(piperidin-4-yl)-1H-indol-2-yl)-7-methylbenzo[d]oxazol-2(3H)-one]
< 100	100 to 1000	100 to 1000	Cc1cn2cc(-c3[nH]c4ccc(C5CCN(C6COC6)CC5)cc4c3C(C)C)cc(C)c2n1 [Example 717, 6-(3-isopropyl-5-(1-(oxetan-3-yl)piperidin-4-yl)-1H-indol-2-yl)-2,8-dimethylimidazo[1,2-a]pyridine]
100 to 1000	> 50000	1000 to 50000	CN1CC(C(=O)N2CCC(c3ccc4[nH]c(-c5ccc6nccn6c5)c(CC(F)F)c4c3)CC2)CC1=O (stereo not drawn) [Example 644, 4-(4-(3-(2,2-difluoroethyl)-2-(imidazo[1,2-a]pyridin-6-yl)-1H-indol-5-yl)piperidine-1-carbonyl)-1-methylpyrrolidin-2-one]
100 to 1000	100 to 1000	100 to 1000	CCc1c(-c2cnc3ncnn3c2)[nH]c2ccc(C3CCNCC3)cc12 [Example 26, 6-(3-ethyl-5-(piperidin-4-yl)-1H-indol-2-yl)-[1,2,4]triazolo[1,5-a]pyrimidine]
